Data published in US11253589B2, “Modulation of the immune response” (priority 2007, dated 2022).

Assays:
[1] = tested on: AHR; assay: ChIP analysis of the interaction of AHR with CABS and NCABS in foxp3; assay type: cell-based, mouse; conditions: CD4+ T cells treated with TCDD for 90'
Description: Briefly, cells were treated for 90′ with TCDD, fixed with 1% formaldehyde for 15 minutes and quenched with 0.125 M glycine. Chromatin was isolated and sheared to an average length of 300-500 bp by sonication. Genomic DNA (input) was prepared by treating aliquots of chromatin with RNase, proteinase K and heat for de-crosslinking, followed by ethanol precipitation. AHR-bound DNA sequences were immuno-precipitated with an AHR-specific antibody (Biomol SA-210). Crosslinks were reversed by incubation overnight at 65° C., and ChIP DNA was purified by phenol-chloroform extraction and ethanol precipitation. Quantitative PCR reactions were then performed using the following primer pairs:
Experimental Ct values were converted to copy numbers detected by comparison with a DNA standard curve run on the same PCR plates. Copy number values were then normalized for primer efficiency by dividing by the values obtained using Input DNA and the same primer pairs. Error bars represent standard deviations calculated from the triplicate determinations.

[2] = tested on: CD4+ CD62L+CD45RO- T cells; assay: In vitro differentiation of human naive CD4+ T cells, suppression and real time PCR; assay type: cell-based
Description: To investigate the potential of AHR targeting for the induction of human Treg we activated purified naïve CD4^+ CD62L^+CD45RO^− T cells for healthy donors for 5 days with antibodies to CD3 and CD28 in the presence of TCDD 100 nM or TGFb1 2.5 ng/ml or both.
To study the functionality of the putative human Treg induced in the presence of TCDD we studied their suppressive activity of CD4^+ CD25^High and CD4^+CD25^Low T cells following 5 days of activation in the of TCDD or TGFb1 2.5 ng/ml or both.
To investigate the mechanism mediating the suppressive activity of the TCDD-induced Treg, we analyzed them by real time PCR for the expression of several genes that have been previously linked to the suppressive function of Treg. […] Accordingly, IL-10-specific blocking antibodies could interfere with the suppressive activity of Treg induced with TCDD, but not the of those induced with TGFb1 and TCDD (FIG. 42). Thus, TCDD-induced CD4^+CD25^High T cells are FoxP3^− regulatory cells whose suppressive activity is mediated, at least partially, via IL-10, resembling the phenotype of type 1 Treg (Roncarolo et al., Immunol Rev. 212, 28 (2006); Roncarolo and Gregori, Eur J Immunol. 38, 925 (2008)).

Clc1cc2c(cc1Cl)Oc1cc(Cl)c(Cl)cc1O2 [TCDD, 2,3,7,8 tetrachlorodibenzo-p-dioxin]
AHR binding to NCABS-1, NCABS-3 in foxp3 (ChIP) [1]: No significant increase in AHR binding | AHR binding to the CABS and NCABS-2 in foxp3 (ChIP) [1]: increased AHR binding to the CABS and NCABS-2 | induction of suppressive (regulatory) T cells ([2]; 5 days activation with antibodies to CD3 and CD28, TGFb1 2.5 ng/ml or TCDD alone): generation of both CD4^+ CD25^High and CD4^+ CD25^Low functional human regulatory T cells | IL-10 expression (real time PCR) ([2]; TCDD 100 nM): increased levels of IL-10 | FoxP3 expression (real time PCR) ([2]; TCDD 100 nM and TGFb1 2.5 ng/ml): significantly up-regulated | FoxP3 expression (real time PCR) ([2]; TCDD 100 nM in the absence of TGFb1): marginal induction of FoxP3 expression | induction of CD4+ FoxP3+ T cells ([2]; TCDD 100 nM, antibodies to CD3 and CD28, 5 days): in some (FIG. 36) but not all human samples | suppressive activity of T cells generated with TCDD ([2]; TCDD together with TGFb1 2.5 ng/ml): amplified in the presence of TGFb1
